Laboratory results from patent US20240247080A1, “GLP1/GIP/NPY2 RECEPTOR TRIPLE AGONISTS” (Boehringer Ingelheim International GmbH, priority 2022, published 2024).
Read-outs that look alike come from different tables or passages of the source. Starred links: 1 amine or outer side, 2 acyl side, 3 side chain; linkers in the order of their positions; H or OH if unused. Non-standard residues stand in square brackets, D forms with d. Residues, ends and D or L forms follow the SMILES beside them. Groups on a side chain read outwards from the residue. ξ: configuration not given here. *: point of attachment. C18 diacid = O=C(O)CCCCCCCCCCCCCCCCC(=O)*; γGlu = O=C(O)[C@H](CCC(=O)[*:2])N[*:1]; NMeY = CN[C@@H](Cc1ccc(O)cc1)C(=O)O; Palmitoyl = CCCCCCCCCCCCCCCC(=O)*; αMeF = C[C@](N)(Cc1ccccc1)C(=O)O; ξIva = CCC(C)(N)C(=O)O; AEEA = NCCOCCOCC(=O)O; Aib = CC(C)(N)C(=O)O

Key:
[1] = target: T1, hGLP1R (Homo sapiens, UniProt P43220); assay: hGLP1R CreLuc reporter gene assay in 0.5% and 100% plasma; format: cell-based; conditions: CreLuc reporter gene assay, 0.5% human plasma; read-out: hGLP1R 0.5% hP
T1 construct: expressed in transfected cells; host or cells: HEK-293 cells carrying a CRE-luciferase reporter gene
Method in brief: (§1)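 HEK cells (GLP-1R, NPY2R) or CHO cells (GIPR) carrying a CRE-luciferase reporter, incubated 4 h at 37 °C with peptides in HBSS/20 mM HEPES pH 7.4 plus 0.5% human plasma, or in 100% plasma. Luminescence read; EC50 from 8-point variable-slope sigmoid fits.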

[2] = Effect on acute food intake in normal NMRI mice; format: in vivo; conditions: 30 nmol/kg subcutaneously once, normalized to vehicle group, male NMRI mice
Description: Example 4: Effect on Acute Food Intake in Normal NMRI Mice
Male NMRI mice were obtained from Janvier (Janvier Labs, France) or from Charles River (Charles River Research Models & Services Germany GmbH) at the age of 3 weeks. The animals get a microchip (Datamars, Slim Microchip T-SL) for individual identification after delivery. They were housed with 4 mice per cage under a 12/12 dark-light cycle, light off at 3 p.m. Room temperature was controlled to 21° C. +/−1° C. and humidity 60%+/−20%. Mice had ad libitum access to regular rodent chow (KLIBA Nafag 3040 or Altromin 1324, Brogaarden, Denmark) and tap water.
Latest transfer into the HM2-System of MBRose, Denmark (real-time monitoring system of food- and water intake) of the animals 5 days before study start, to allow acclimatization to experimental conditions. As the animals were uniquely identified with the microchips, each individual animal was identified by its own microchip upon entry and exit from the food channel via antennae. Randomization of the mice for each study group (n=8; age earliest 6 weeks old) was based on food intake (middle of last three days 24 h-Intervall) and bodyweight directly before start of the study. A vehicle treated (50 mM phosphate buffer pH7.4 with 3.5% Mannitol) group was included in each experiment. To have the same nutrition standard for each animal the food access was locked eight hours before dark phase. One hour before night, the animals were once treated subcutaneously with the test peptide. Food intake was reported hourly for a period of 24 h.

[3] = Mouse PK after intravenous application; format: in vivo; conditions: mean residence time, intravenous 30-60 nmol/kg, male NMRI mice
Method in brief: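 Male NMRI mice (30–40 g) received 30-60 nmol/kg peptide by tail-vein injection, dissolved in 50 mM phosphate buffer (pH 7.4)/3.5% mannitol. Saphenous blood was sampled up to 56 hours post-dose and EDTA plasma analysed by LC-MS. PK parameters came from non-compartmental analysis.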

[4] = target: T2, hNPY2R (Homo sapiens, UniProt P49146); assay: hNPY2R CreLuc reporter gene assay in 0.5% and 100% plasma; format: cell-based; conditions: CreLuc reporter gene assay
T2 construct: expressed in transfected cells; host or cells: HEK-293 cells carrying a CRE-luciferase reporter gene
T2 sequence (P49146 1-381): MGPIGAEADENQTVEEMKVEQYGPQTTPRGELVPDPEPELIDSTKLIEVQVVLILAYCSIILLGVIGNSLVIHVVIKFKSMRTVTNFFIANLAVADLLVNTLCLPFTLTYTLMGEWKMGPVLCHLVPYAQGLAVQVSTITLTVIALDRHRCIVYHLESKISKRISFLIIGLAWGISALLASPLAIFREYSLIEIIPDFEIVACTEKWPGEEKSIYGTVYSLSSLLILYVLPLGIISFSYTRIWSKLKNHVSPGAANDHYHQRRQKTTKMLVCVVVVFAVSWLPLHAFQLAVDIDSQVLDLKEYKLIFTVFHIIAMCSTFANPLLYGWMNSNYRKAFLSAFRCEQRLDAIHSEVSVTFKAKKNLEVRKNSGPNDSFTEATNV
Method in brief: as §1

[5] = target: T3, hGIPR (Homo sapiens, UniProt P48546); assay: hGIPR CreLuc reporter gene assay in 0.5% and 100% plasma; format: cell-based; conditions: CreLuc reporter gene assay
T3 construct: expressed in transfected cells; host or cells: CHO cells carrying a CRE-luciferase reporter gene
T3 sequence (P48546 22-466): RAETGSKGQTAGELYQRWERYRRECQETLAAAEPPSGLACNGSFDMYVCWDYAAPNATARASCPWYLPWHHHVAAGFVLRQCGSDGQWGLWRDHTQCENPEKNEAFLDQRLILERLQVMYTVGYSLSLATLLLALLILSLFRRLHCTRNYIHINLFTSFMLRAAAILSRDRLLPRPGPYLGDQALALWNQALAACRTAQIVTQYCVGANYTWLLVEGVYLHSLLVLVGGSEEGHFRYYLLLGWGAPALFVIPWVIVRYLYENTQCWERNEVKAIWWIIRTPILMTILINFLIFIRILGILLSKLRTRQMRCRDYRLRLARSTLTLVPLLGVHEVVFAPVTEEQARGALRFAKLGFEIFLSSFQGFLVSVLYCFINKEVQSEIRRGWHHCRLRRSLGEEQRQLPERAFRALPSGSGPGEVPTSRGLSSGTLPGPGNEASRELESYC
Method in brief: as §1

[6] = Solubility in 0.1 M phosphate buffer at pH 7; format: physicochemical
Description: Peptides (as TFA-salts) were weighed out in a filter unit (Mini-UniPrep Syringieless Filter 0.45 prn. Whatman PVDF), and 0.1 M phosphate buffer at pH 7 was added to achieve 10 mg/mL final peptide concentration. The peptides were dissolved by shaking the filter units horizontally at 600 rpm for 2 hours at room temperature. Samples were then filtered to remove any insoluble particles. Controls were prepared by weighing out the corresponding peptide solid material and dissolving it in an appropriate vehicle (e.g. ACN:H2O) to a final concentration of 1 mg/mL. Both, the control and sample were analyzed by reversed phase chromatography. The area under the peak of the sample was compared to the control and the solubility was calculated based on that ratio. The pH was measured and recorded for each sample.

[7] = 0.5% human plasma, read-out: hGIPR 0.5% hP
[8] = 100% human plasma, read-out: hGIPR 100% hP

T1 sequence (P43220 24-463): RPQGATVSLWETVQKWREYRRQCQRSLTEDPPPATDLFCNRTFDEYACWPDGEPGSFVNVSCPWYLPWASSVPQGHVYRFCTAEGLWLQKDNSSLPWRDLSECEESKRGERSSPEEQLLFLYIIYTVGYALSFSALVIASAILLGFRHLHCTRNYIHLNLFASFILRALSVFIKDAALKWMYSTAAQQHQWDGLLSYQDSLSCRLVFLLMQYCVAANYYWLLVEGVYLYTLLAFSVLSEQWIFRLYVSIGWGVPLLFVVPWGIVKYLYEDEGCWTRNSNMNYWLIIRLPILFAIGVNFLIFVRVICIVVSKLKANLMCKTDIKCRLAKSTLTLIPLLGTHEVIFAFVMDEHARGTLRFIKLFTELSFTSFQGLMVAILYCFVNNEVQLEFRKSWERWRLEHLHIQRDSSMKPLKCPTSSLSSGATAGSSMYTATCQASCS

EC50 [1] [pM] | MRT ([3]; plasma) [h] | EC50 ([4]; 100% human plasma, read-out: hNPY2R 100% hP) [pM] | EC50 [5, 7] [pM] | EC50 [5, 8] [pM] | solubility [6] [µg/mL] | MRT ([3]; in vivo) [h] | solubility ([6]; phosphate buffer) [µg/mL] | EC50 ([4]; 0.5% human plasma, read-out: hNPY2R 0.5% hP) [pM] | Compound | Acute Food Intake 24 h 30 nmol/kg [% CTL] [2] [% CTL]
100 | 8.5 | 23000 | 390 | 790 |  |  |  |  | CC[C@H](C)[C@H](NC(=O)[C@H](CC(C)C)NC(=O)[C@H](Cc1c[nH]c2ccccc12)NC(=O)[C@H](CCC(N)=O)NC(=O)[C@@H](NC(=O)[C@H](Cc1ccccc1)NC(=O)[C@H](C)NC(=O)C(C)(C)NC(=O)[C@H](CCC(N)=O)NC(=O)[C@H](C)NC(=O)[C@H](CCC(N)=O)NC(=O)[C@H](CCCCN)NC(=O)[C@H](CCC(=O)O)NC(=O)[C@H](CC(C)C)NC(=O)C(C)(C)NC(=O)[C@@H](NC(=O)[C@H](CO)NC(=O)[C@H](Cc1ccc(O)cc1)NC(=O)[C@H](CC(=O)O)NC(=O)[C@H](CO)NC(=O)[C@@H](NC(=O)[C@H](Cc1ccccc1)NC(=O)[C@@H](NC(=O)CNC(=O)[C@H](CCC(=O)O)NC(=O)C(C)(C)NC(=O)[C@@H](N)Cc1ccc(O)cc1)[C@@H](C)O)[C@@H](C)O)[C@@H](C)CC)C(C)C)C(=O)N[C@@H](CCCCNC(=O)[C@@H](N)CCCCNC(=O)CC[C@H](NC(=O)CC[C@H](NC(=O)CC[C@H](NC(=O)CC[C@H](NC(=O)CC[C@H](NC(=O)CC[C@H](NC(=O)CCCCCCCCCCCCCCCCC(=O)O)C(=O)O)C(=O)O)C(=O)O)C(=O)O)C(=O)O)C(=O)O)C(=O)NCC(=O)NCC(=O)N1CCC[C@H]1C(=O)N[C@@H](CO)C(=O)N[C@@H](CCC(=O)O)C(=O)NCC(=O)N[C@@H](C)C(=O)N[C@@H](CO)C(=O)N[C@@H](CC(C)C)C(=O)N[C@@H](CCCNC(=N)N)C(=O)N[C@@H](Cc1c[nH]cn1)C(=O)N[C@@H](Cc1ccc(O)cc1)C(=O)N[C@@H](Cc1ccc(O)cc1)C(=O)N[C@@H](CC(N)=O)C(=O)N[C@@H](Cc1c[nH]c2ccccc12)C(=O)N[C@@H](CC(C)C)C(=O)N[C@H](C(=O)N[C@@H](CCCNC(=N)N)C(=O)N[C@@H](CCC(N)=O)C(=O)N[C@@H](CCCNC(=N)N)C(=O)N[C@@H](Cc1ccc(O)cc1)C(N)=O)[C@@H](C)O [Compound 265, Y-Aib-E-G-T-F-T-S-D-Y-S-I-Aib-L-E-K-Q-A-Q-Aib-A-F-V-Q-W-L-I-K(1,3)-GGPSEGASLRHYYNWLTRQRY-NH2.C18DA-gGlu-gGlu-gGlu-gGlu-gGlu-gGlu-eLys(1,2)] | 50
 |  |  |  |  | < 1000 | < 1 |  |  | CCCCCCCCCCCCCCCC(=O)NCC(=O)NCC(=O)NCC(=O)NCC(=O)NCCCC[C@H](NC(=O)[C@H](CC(=O)O)NC(=O)[C@H](CO)NC(=O)[C@@H](NC(=O)[C@](C)(Cc1ccccc1)NC(=O)[C@@H](NC(=O)CNC(=O)[C@H](CCC(=O)O)NC(=O)C(C)(C)NC(=O)[C@H](Cc1ccc(O)cc1)NC)[C@@H](C)O)[C@@H](C)O)C(=O)N[C@@H](CO)C(=O)N[C@H](C(=O)NC(C)(C)C(=O)N[C@@H](CC(C)C)C(=O)N[C@@H](CCC(=O)O)C(=O)N[C@@H](CCCCN)C(=O)N[C@@H](CCC(N)=O)C(=O)N[C@@H](CCCNC(=N)N)C(=O)N[C@@H](CCC(N)=O)C(=O)NC(C)(CC)C(=O)N[C@@H](CCC(=O)O)C(=O)N[C@@H](Cc1ccccc1)C(=O)N[C@H](C(=O)N[C@@H](CCCNC(=N)N)C(=O)N[C@@H](Cc1c[nH]cn1)C(=O)N[C@@H](CC(C)C)C(=O)N[C@@H](CC(C)C)C(=O)N[C@@H](CC(N)=O)C(=O)N[C@@H](CCCCN)C(=O)NC(C)(C)C(=O)N[C@H](C(=O)N[C@@H](CCCNC(=N)N)C(=O)N[C@@H](CCC(N)=O)C(=O)N[C@@H](CCCNC(=N)N)C(=O)N[C@@H](Cc1ccc(O)cc1)C(N)=O)[C@@H](C)O)C(C)C)[C@@H](C)CC (stereo partly drawn) [Ref. 1, NMeY-Aib-E-G-T-aMeF-T-S-D-K(1,3)-S-I-Aib-L-E-K-Q-R-Q-Iva-E-F-V-R-H-L-L-N-K-Aib-T-R-Q-R-Y-NH2.C16A-G-G-G-G(1,2), reference compound] (H-[NMeY][Aib]EGT[αMeF]TSDK([Gly-Gly-Gly-Gly-Palmitoyl])SI[Aib]LEKQRQ[ξIva]EFVRHLLNK[Aib]TRQRY-NH2) | 
 | 4.3 |  |  |  |  |  | < 1000 |  | CC[C@H](C)[C@H](NC(=O)[C@H](CO)NC(=O)[C@H](CCCCNC(=O)CNC(=O)CNC(=O)CNC(=O)CNC(=O)CCCCCCCCCCCCCCCCC(=O)O)NC(=O)[C@H](CC(=O)O)NC(=O)[C@H](CO)NC(=O)[C@@H](NC(=O)[C@](C)(Cc1ccccc1)NC(=O)[C@@H](NC(=O)CNC(=O)[C@H](CCC(=O)O)NC(=O)C(C)(C)NC(=O)[C@H](Cc1ccc(O)cc1)NC)[C@@H](C)O)[C@@H](C)O)C(=O)NC(C)(C)C(=O)N[C@@H](CC(C)C)C(=O)N[C@@H](CCC(=O)O)C(=O)N[C@@H](CCCCN)C(=O)N[C@@H](CCC(N)=O)C(=O)N[C@@H](CCCNC(=N)N)C(=O)N[C@@H](CCC(N)=O)C(=O)NC(C)(CC)C(=O)N[C@@H](CCC(=O)O)C(=O)N[C@@H](Cc1ccccc1)C(=O)N[C@H](C(=O)N[C@@H](CCCNC(=N)N)C(=O)N[C@@H](Cc1c[nH]cn1)C(=O)N[C@@H](CC(C)C)C(=O)N[C@@H](CC(C)C)C(=O)N[C@@H](CC(N)=O)C(=O)N[C@@H](CCCCN)C(=O)NC(C)(C)C(=O)N[C@H](C(=O)N[C@@H](CCCNC(=N)N)C(=O)N[C@@H](CCC(N)=O)C(=O)N[C@@H](CCCNC(=N)N)C(=O)N[C@@H](Cc1ccc(O)cc1)C(N)=O)[C@@H](C)O)C(C)C (stereo partly drawn) [Ref. 2, NMeY-Aib-E-G-T-aMeF-T-S-D-K(1,3)-S-I-Aib-L-E-K-Q-R-Q-Iva-E-F-V-R-H-L-L-N-K-Aib-T-R-Q-R-Y-NH2.C18DA-G-G-G-G(1,2), reference compound] (H-[NMeY][Aib]EGT[αMeF]TSDK([Gly-Gly-Gly-Gly-C18 diacid])SI[Aib]LEKQRQ[ξIva]EFVRHLLNK[Aib]TRQRY-NH2) | 
310 | 8 |  | 280 | 1230 |  |  |  | 12000 | H-Y[Aib]EGTFTSDYSI[Aib]LEKQAQ[Aib]EFVEWLIK([AEEA-AEEA-γGlu-γGlu-γGlu-γGlu-C18 diacid])GGPSSGASLRHYYNWLTRQRY-NH2 [Compound 145, Y-Aib-E-G-T-F-T-S-D-Y-S-I-Aib-L-E-K-Q-A-Q-Aib-E-F-V-E-W-L-I-K(1,3)-GGPSSGASLRHYYNWLTRQRY-NH2.C18DA-gGlu-gGlu-gGlu-gGlu-OEG-OEG(1,2)] | 43
